Experimental findings from article PMC5218480 (PLoS ONE, 2017) are described below.

The assay concerns MV-4-11 cells. Nature of the assay: Gene expression microarray analysis (Affymetrix PrimeView) and GSEA. It counts as cell-based, human. More on the design: RFU PODN (11730768_x_at) / Fold change /veh PODN (11730768_x_at) / RFU LINC00158 (11744669_a_at) / Fold change /veh LINC00158 (11744669_a_at) / RFU DUSP10 (11751237_a_at) / Fold change /veh DUSP10 (11751237_a_at) / RFU ID3 (11757404_x_at) / Fold change /veh ID3 (11757404_x_at) / RFU PLEKHG5 (11737974_s_at) / Fold change /veh PLEKHG5 (11737974_s_at) / RFU LRRC4B (11730491_at) / Fold change /veh LRRC4B (11730491_at) / RFU GIMAP4 (11747438_a_at) / Fold change /veh GIMAP4 (11747438_a_at) / RFU KRT8 (11758183_x_at) / Fold change /veh KRT8 (11758183_x_at) / RFU CNN1 (11734310_a_at) / Fold change /veh CNN1 (11734310_a_at) / RFU VPS37D (11726825_at) / Fold change /veh VPS37D (11726825_at) / RFU C10orf10 (11716522_x_at) / Fold change /veh C10orf10 (11716522_x_at) / RFU KIR2DL2 /// KIR2DL4 /// KIR2DL5A /// KIR2DL5B /// KIR2DS1 /// KIR2DS2 /// KIR2DS3 /// KIR2DS4 /// KIR3DL3 /// KIR3DL3 /// KIR3DS1 (11738374_at) / Fold change /veh KIR2DL2 /// KIR2DL4 /// KIR2DL5A /// KIR2DL5B /// KIR2DS1 /// KIR2DS2 /// KIR2DS3 /// KIR2DS4 /// KIR3DL3 /// KIR3DL3 /// KIR3DS1 (11738374_at) / RFU C1QL1 (11718748_at) / Fold change /veh C1QL1 (11718748_at) / RFU TMPRSS4 (11747572_a_at) / Fold change /veh TMPRSS4 (11747572_a_at) / RFU HAMP (11756126_x_at) / Fold change /veh HAMP (11756126_x_at) / RFU RNFT2 (11725882_a_at) / Fold change /veh RNFT2 (11725882_a_at) / RFU NR4A2 (11747474_a_at) / Fold change /veh NR4A2 (11747474_a_at) / RFU ABCC12 (11746883_a_at) / Fold change /veh ABCC12 (11746883_a_at) / RFU TMEM136 (11760407_x_at) / Fold change /veh TMEM136 (11760407_x_at) / RFU CLDN22 /// WWC2 (11732394_at) / Fold change /veh CLDN22 /// WWC2 (11732394_at) / RFU HLA-DPB1 (11760878_x_at) / Fold change /veh HLA-DPB1 (11760878_x_at) / RFU SPINT1 (11716480_a_at) / Fold change /veh SPINT1 (11716480_a_at) / RFU GAP43 (11754022_s_at) / Fold change /veh GAP43 (11754022_s_at) / RFU A4GNT (11735810_at) / Fold change /veh A4GNT (11735810_at) / RFU PRB3 (11715151_x_at) / Fold change /veh PRB3 (11715151_x_at) / RFU TUBB4B (11761932_at) / Fold change /veh TUBB4B (11761932_at) / RFU CAPN14 (11732068_a_at) / Fold change /veh CAPN14 (11732068_a_at) / RFU TMCC2 (11721928_a_at) / Fold change /veh TMCC2 (11721928_a_at) / RFU IRGQ (11745062_a_at) / Fold change /veh IRGQ (11745062_a_at) / RFU FAM174B (11720279_a_at) / Fold change /veh FAM174B (11720279_a_at) / RFU TMPRSS4 (11748680_a_at) / Fold change /veh TMPRSS4 (11748680_a_at) / RFU FAM212B (11763350_a_at) / Fold change /veh FAM212B (11763350_a_at) / RFU PLEKHG5 (11743358_a_at) / Fold change /veh PLEKHG5 (11743358_a_at) / RFU ZSCAN30 (11745921_a_at) / Fold change /veh ZSCAN30 (11745921_a_at) / RFU CMKLR1 (11741424_a_at) / Fold change /veh CMKLR1 (11741424_a_at) / RFU LOC101060620 /// MAPK8IP1 (11723275_at) / Fold change /veh LOC101060620 /// MAPK8IP1 (11723275_at) / RFU SPTSSB (11747773_x_at) / Fold change /veh SPTSSB (11747773_x_at) / RFU PRSS12 (11739890_at) / Fold change /veh PRSS12 (11739890_at) / RFU BIN1 (11741810_x_at) / Fold change /veh BIN1 (11741810_x_at) / RFU WNT11 (11732464_a_at) / Fold change /veh WNT11 (11732464_a_at) / RFU C10orf10 (11716521_a_at) / Fold change /veh C10orf10 (11716521_a_at) / RFU C5orf56 (11738089_at) / Fold change /veh C5orf56 (11738089_at) / RFU CYB561 (11721691_x_at) / Fold change /veh CYB561 (11721691_x_at) / RFU ANKRD19P (11752326_a_at) / Fold change /veh ANKRD19P (11752326_a_at) / RFU OR2T12 /// OR2T33 /// OR2T8 (11738714_s_at) / Fold change /veh OR2T12 /// OR2T33 /// OR2T8 (11738714_s_at) / RFU VCAN (11748164_a_at) / Fold change /veh VCAN (11748164_a_at) / RFU JSRP1 (11732532_at) / Fold change /veh JSRP1 (11732532_at) / RFU KRTAP10-11 (11738290_x_at) / Fold change /veh KRTAP10-11 (11738290_x_at) / RFU MYO3A (11730013_a_at) / Fold change /veh MYO3A (11730013_a_at) / RFU EBF3 (11725865_a_at) / Fold change /veh EBF3 (11725865_a_at) / RFU CAMK2N1 (11719241_x_at) / Fold change /veh CAMK2N1 (11719241_x_at) / RFU C5orf56 (11738088_a_at) / Fold change /veh C5orf56 (11738088_a_at) / RFU OLFML3 (11715873_a_at) / Fold change /veh OLFML3 (11715873_a_at) / RFU LOC100653217 /// NTM (11731650_a_at) / Fold change /veh LOC100653217 /// NTM (11731650_a_at) / RFU MAPK11 (11762145_a_at) / Fold change /veh MAPK11 (11762145_a_at) / RFU FIZ1 (11724087_x_at) / Fold change /veh FIZ1 (11724087_x_at) / RFU OASL (11726364_x_at) / Fold change /veh OASL (11726364_x_at) / RFU SOX15 (11748057_x_at) / Fold change /veh SOX15 (11748057_x_at) / RFU CD79A (11719716_a_at) / Fold change /veh CD79A (11719716_a_at) / RFU HIST1H1D (11736915_at) / Fold change /veh HIST1H1D (11736915_at) / RFU CASKIN2 (11723855_a_at) / Fold change /veh CASKIN2 (11723855_a_at) / RFU LOC730098 (11760151_x_at) / Fold change /veh LOC730098 (11760151_x_at) / RFU OR4N2 (11742367_at) / Fold change /veh OR4N2 (11742367_at) / RFU PRRT2 (11749266_a_at) / Fold change /veh PRRT2 (11749266_a_at) / RFU SNX32 (11753110_a_at) / Fold change /veh SNX32 (11753110_a_at) / RFU CDHR5 (11726645_a_at) / Fold change /veh CDHR5 (11726645_a_at) / RFU RCAN1 (11760418_a_at) / Fold change /veh RCAN1 (11760418_a_at) / RFU FAM167A (11723789_a_at) / Fold change /veh FAM167A (11723789_a_at) / RFU FAM26E (11764081_at) / Fold change /veh FAM26E (11764081_at) / RFU ISYNA1 (11749810_s_at) / Fold change /veh ISYNA1 (11749810_s_at) / RFU ACY1 (11761880_at) / Fold change /veh ACY1 (11761880_at) / RFU 11764098_at / Fold change /veh 11764098_at / RFU SAMD14 (11745864_x_at) / Fold change /veh SAMD14 (11745864_x_at) / RFU NPB (11741838_a_at) / Fold change /veh NPB (11741838_a_at) / RFU TMPRSS6 (11731388_a_at) / Fold change /veh TMPRSS6 (11731388_a_at) / RFU KRTAP10-2 (11738614_at) / Fold change /veh KRTAP10-2 (11738614_at) / RFU ARHGAP8 /// PRR5-ARHGAP8 (11727945_x_at) / Fold change /veh ARHGAP8 /// PRR5-ARHGAP8 (11727945_x_at) / RFU KRTAP5-7 /// NADSYN1 (11734609_at) / Fold change /veh KRTAP5-7 /// NADSYN1 (11734609_at) / RFU RASL12 (11751679_a_at) / Fold change /veh RASL12 (11751679_a_at) / RFU CDKN2B (11736163_a_at) / Fold change /veh CDKN2B (11736163_a_at) / RFU PRF1 (11729649_at) / Fold change /veh PRF1 (11729649_at) / RFU, ZNF638 /// ZNF638-IT1 / Fold change vs veh, ZNF638 /// ZNF638-IT1 / RFU, PANK3 / Fold change vs veh, PANK3 / RFU, SH3YL1 / Fold change vs veh, SH3YL1 / RFU, ZEB2 / Fold change vs veh, ZEB2 / RFU, NRIP1 / Fold change vs veh, NRIP1 / RFU, PTTG1IP / Fold change vs veh, PTTG1IP / RFU, CAPN2 / Fold change vs veh, CAPN2 / RFU, MED14 / Fold change vs veh, MED14 / RFU, SNORA58 / Fold change vs veh, SNORA58 / RFU, C1orf63 / Fold change vs veh, C1orf63 / RFU, LRRFIP1 / Fold change vs veh, LRRFIP1 / RFU, NDUFAF7 / Fold change vs veh, NDUFAF7 / RFU, SLC12A2 / Fold change vs veh, SLC12A2 / RFU, IBTK / Fold change vs veh, IBTK / RFU, ESF1 / Fold change vs veh, ESF1 / Fold change vs veh, TMEM50B / RFU, TAOK1 / Fold change vs veh, TAOK1 / RFU, ACBD3 / Fold change vs veh, ACBD3 / RFU, TMA16 / Fold change vs veh, TMA16 / RFU, RWDD3 / Fold change vs veh, RWDD3 / RFU, BCAT1 / Fold change vs veh, BCAT1 / RFU, EDEM3 / Fold change vs veh, EDEM3 / RFU, TMEM33 / Fold change vs veh, TMEM33 / RFU, WDR75 / Fold change vs veh, WDR75 / RFU, AHCTF1 / Fold change vs veh, AHCTF1 / RFU, TFRC / Fold change vs veh, TFRC / RFU, ZDHHC17 / Fold change vs veh, ZDHHC17 / RFU, NOM1 / Fold change vs veh, NOM1 / RFU, ARL8B / Fold change vs veh, ARL8B / RFU, ZBTB11 / Fold change vs veh, ZBTB11 / RFU, TAMM41 / Fold change vs veh, TAMM41 / RFU, KIAA1704 /// LOC100996395 / Fold change vs veh, KIAA1704 /// LOC100996395 / RFU, ING1 / Fold change vs veh, ING1 / RFU, TRMT61B / Fold change vs veh, TRMT61B / RFU, FUBP3 / Fold change vs veh, FUBP3 / RFU, TP53 / Fold change vs veh, TP53 / RFU, TNKS2 / Fold change vs veh, TNKS2 / RFU, ZFP14 / Fold change vs veh, ZFP14 / RFU, ACTR2 / Fold change vs veh, ACTR2 / RFU, PPP3R1 / Fold change vs veh, PPP3R1 / RFU, PIK3R1 / Fold change vs veh, PIK3R1 / RFU, HNRNPA1 / Fold change vs veh, HNRNPA1 / RFU, RNF170 / Fold change vs veh, RNF170 / RFU, ZNF28 / Fold change vs veh, ZNF28 / RFU, RNGTT / Fold change vs veh, RNGTT / RFU, OGT / Fold change vs veh, OGT / RFU, BRD1 / Fold change vs veh, BRD1 / RFU, MARS / Fold change vs veh, MARS / RFU, ZNF655 / Fold change vs veh, ZNF655 / RFU, FAHD1 / Fold change vs veh, FAHD1 / RFU, BDP1 / Fold change vs veh, BDP1 / RFU, LRRCC1 / Fold change vs veh, LRRCC1 / RFU, ARID1A / Fold change vs veh, ARID1A / RFU, ZNF146 / Fold change vs veh, ZNF146 / RFU, ZNF330 / Fold change vs veh, ZNF330 / RFU, GPN3 / Fold change vs veh, GPN3 / RFU, C9orf123 / Fold change vs veh, C9orf123 / RFU, N4BP2L2 / Fold change vs veh, N4BP2L2 / RFU, ARFIP1 / Fold change vs veh, ARFIP1 / RFU, FAM179B / Fold change vs veh, FAM179B / RFU, BCL10 / Fold change vs veh, BCL10 / RFU, UHRF1BP1L / Fold change vs veh, UHRF1BP1L / RFU, BET1 / Fold change vs veh, BET1 / RFU, CNOT2 / Fold change vs veh, CNOT2 / RFU, ZNF268 / Fold change vs veh, ZNF268 / Fold change vs veh, ZNF507 / RFU, DGCR2 / Fold change vs veh, DGCR2 / RFU, WDSUB1 / Fold change vs veh, WDSUB1 / Fold change vs veh, HSP90B1 /// MIR3652 / RFU, ADSS / Fold change vs veh, ADSS / RFU, GK / Fold change vs veh, GK / RFU, ZNF148 / Fold change vs veh, ZNF148 / RFU, TAF9 / Fold change vs veh, TAF9 / RFU, SLC1A5 / Fold change vs veh, SLC1A5 / RFU, SLMO2 / Fold change vs veh, SLMO2 / RFU, ABCC4 / Fold change vs veh, ABCC4 / RFU, LOC101060439 /// RAP1B / Fold change vs veh, LOC101060439 /// RAP1B / RFU, RFX7 / Fold change vs veh, RFX7 / RFU, GTPBP10 / Fold change vs veh, GTPBP10 / RFU, CNEP1R1 / Fold change vs veh, CNEP1R1 / RFU, BIVM-ERCC5 /// ERCC5 / Fold change vs veh, BIVM-ERCC5 /// ERCC5 / RFU, ILF3 / Fold change vs veh, ILF3 / RFU 11762660_at / Fold change /veh 11762660_at / RFU VCAN (11757783_s_at) / Fold change /veh VCAN (11757783_s_at) / RFU DDX43 (11728927_at) / Fold change /veh DDX43 (11728927_at) / RFU KRT8 (11758188_x_at) / Fold change /veh KRT8 (11758188_x_at) / RFU NKD1 (11759106_at) / Fold change /veh NKD1 (11759106_at) / RFU SRD5A1 (11742802_a_at) / Fold change /veh SRD5A1 (11742802_a_at) / RFU TPSAB1 /// TPSB2 (11721975_s_at) / Fold change /veh TPSAB1 /// TPSB2 (11721975_s_at) / RFU GSTM3 (11746129_a_at) / Fold change /veh GSTM3 (11746129_a_at) / RFU IL23R (11737362_x_at) / Fold change /veh IL23R (11737362_x_at) / RFU TMEM51 (11727254_a_at) / Fold change /veh TMEM51 (11727254_a_at) / RFU PIWIL2 (11732686_x_at) / Fold change /veh PIWIL2 (11732686_x_at) / RFU ORM1 (11744905_x_at) / Fold change /veh ORM1 (11744905_x_at) / RFU CCDC152 (11743942_at) / Fold change /veh CCDC152 (11743942_at) / RFU ECM1 (11717891_a_at) / Fold change /veh ECM1 (11717891_a_at) / RFU IL23R (11748794_a_at) / Fold change /veh IL23R (11748794_a_at) / RFU TNFAIP8L3 (11732012_x_at) / Fold change /veh TNFAIP8L3 (11732012_x_at) / RFU MBOAT4 (11741988_at) / Fold change /veh MBOAT4 (11741988_at) / RFU 11764193_at / Fold change /veh 11764193_at / RFU TMEM53 (11763286_at) / Fold change /veh TMEM53 (11763286_at) / RFU MAGEB2 (11727129_at) / Fold change /veh MAGEB2 (11727129_at) / RFU TMEM200A (11744735_a_at) / Fold change /veh TMEM200A (11744735_a_at) / RFU CCDC152 (11751479_a_at) / Fold change /veh CCDC152 (11751479_a_at) / RFU FAM211A (11726209_a_at) / Fold change /veh FAM211A (11726209_a_at) / RFU RGS16 (11746705_a_at) / Fold change /veh RGS16 (11746705_a_at) / RFU VCAN (11755009_s_at) / Fold change /veh VCAN (11755009_s_at) / RFU RHOB (11743442_s_at) / Fold change /veh RHOB (11743442_s_at) / RFU RGS16 (11720943_a_at) / Fold change /veh RGS16 (11720943_a_at) / RFU RGS16 (11720944_at) / Fold change /veh RGS16 (11720944_at) / RFU, VPS4B / Fold change vs veh, VPS4B / RFU, CREB1 / Fold change vs veh, CREB1 / RFU, DNAJC13 / Fold change vs veh, DNAJC13 / RFU, GNAQ / Fold change vs veh, GNAQ / RFU, CDK5R1 / Fold change vs veh, CDK5R1 / RFU, ZRANB3 / Fold change vs veh, ZRANB3 / RFU, CUL4A / Fold change vs veh, CUL4A / RFU, CCNY / Fold change vs veh, CCNY / RFU, UFL1 / Fold change vs veh, UFL1 / RFU, COG3 / Fold change vs veh, COG3 / RFU, DIAPH2 / Fold change vs veh, DIAPH2 / RFU, SKA2 / Fold change vs veh, SKA2 / RFU, AFF3 / Fold change vs veh, AFF3 / RFU, LMF1 / Fold change vs veh, LMF1 / RFU, IPO11 / Fold change vs veh, IPO11 / RFU, DFFB / Fold change vs veh, DFFB / RFU, FOXP1 / Fold change vs veh, FOXP1 / RFU, CARD8 / Fold change vs veh, CARD8 / RFU, STRN3 / Fold change vs veh, STRN3 / RFU, ADK / Fold change vs veh, ADK / RFU, RASSF2 / Fold change vs veh, RASSF2 / RFU, WIPF1 / Fold change vs veh, WIPF1 / RFU, LARP1B / Fold change vs veh, LARP1B / RFU, RASA1 / Fold change vs veh, RASA1 / RFU, RB1 / Fold change vs veh, RB1 / RFU, PPFIA1 / Fold change vs veh, PPFIA1 / RFU, MAT2A / Fold change vs veh, MAT2A / RFU, CCT5 / Fold change vs veh, CCT5 / RFU, WDR92 / Fold change vs veh, WDR92 / RFU, CUX1 / Fold change vs veh, CUX1 / RFU, TTC7A / Fold change vs veh, TTC7A / RFU, TMEM135 / Fold change vs veh, TMEM135 / RFU, DEPTOR / Fold change vs veh, DEPTOR / RFU, CPM / Fold change vs veh, CPM / RFU, DNAJB6 / Fold change vs veh, DNAJB6 / RFU, CACNA2D3 / Fold change vs veh, CACNA2D3 / RFU, DTX4 / Fold change vs veh, DTX4 / RFU, TFCP2 / Fold change vs veh, TFCP2 / RFU, GMCL1 /// GMCL1P1 / Fold change vs veh, GMCL1 /// GMCL1P1 / RFU, AEBP2 / Fold change vs veh, AEBP2 / RFU, SNHG1 /// SNORD22 /// SNORD25 /// SNORD26 /// SNORD27 /// SNORD28 /// SNORD29 /// SNORD31 / Fold change vs veh, SNHG1 /// SNORD22 /// SNORD25 /// SNORD26 /// SNORD27 /// SNORD28 /// SNORD29 /// SNORD31 / Fold change (Aza/veh), C12orf56 (ProbeSet 11735607_a_at) / Fold change (ACY-1035/veh), C12orf56 (ProbeSet 11735607_a_at) / Fold change (Aza/veh), FGFR1OP (ProbeSet 11751329_s_at) / Fold change (ACY-1035/veh), FGFR1OP (ProbeSet 11751329_s_at) / Fold change (Aza/veh), VPS36 (ProbeSet 11739960_a_at) / Fold change (ACY-1035/veh), VPS36 (ProbeSet 11739960_a_at) / RFU SYPL1 (11715823_x_at) / Fold change /veh SYPL1 (11715823_x_at) / RFU IGFBP7 (11715501_s_at) / Fold change /veh IGFBP7 (11715501_s_at) / RFU REEP3 (11722064_at) / Fold change /veh REEP3 (11722064_at) / RFU IGLL1 (11728026_x_at) / Fold change /veh IGLL1 (11728026_x_at): dose or concentration left out as unconfirmed. Particulars: gene FGFR1OP; ACY-1035 vs DMSO; LIST F.

With `Nc1ccc(-c2cccs2)cc1NC(=O)c1ccc2c(c1)cc(C1CC1)n2CCN1CCOCC1` [ACY-1035], the “Fold change (ACY-1035/veh), FGFR1OP (ProbeSet 11751329_s_at)” value was 0.57.
